Several values for one entry are separate records, joined by “and”; a condition that tells them apart may be missing. Equal entries are not always repeated. Where two headings read alike, the source gives them in different places.
Legend:
Ub^+ and p62^+ puncta = test: ICC of Ub (FK2) and p62 puncta in HeLa cells; type: cell-based; conditions: Fig. 4g; for FK2 (Ub) / p62 colocalization, cells counted per 50 cells (individual replicates): listed as PBA
Description: Fig. 4 Targeted autophagic delivery and degradation of misfolded protein cargoes using AUTOTACs with aggregate-binding warhead. a A model illustrating the mode of action of aggregate-targeting AUTOTAC. b Chemical structures of PBA-1105, PBA-1106, Anle138b-F105 and PBA-1105b. c In vitro p62 oligomerization assay in HEK293T cells incubated with the indicated compounds in (b). d WB in HEK293T cells treated with MG132 (1 μM, 24 h), HCQ (10 μM, 24 h), PBA-1105, YTK-1105, and PBA (1 μM, 24 h). e Identical to (d), but with Anle-F105. f ICC of HeLa cells treated with HCQ (10 μM, 24 h), MG132 (2 μM, 18 h) or both in the presence of PBA-1106, YOK-1106 or PBA (1 μM, 24 h). Scale bar, 10 μm. g Quantification of (f) (n = 3, 50 cells). h ICC of HeLa cells treated with Anle138b-F105 (1 μM, 24 h). Scale bar, 10 μm. i Quantification of (h) (n = 3, 50 cells). When indicated, n = 3 biologically independent experiments each counting 50 cells. Data are presented as mean values ± SD where relevant. P-values (from a two-sided unpaired t test): ***P < 7.66E−05. Source data are provided with this paper.
(§1) Cells were cultured on coverslips coated with poly-L-lysine (Sigma) to observe cellular localization of proteins. Using 4% paraformaldehyde in PBS (pH 7.4), the cells were fixed for 15 min at room temperature and washed three times for 5 min with PBS. After fixing, the cells were permeabilized with 0.5% Triton X-100 in PBS solution for 15 min and washed three times with PBS for 5 min. The cells were blocked containing 2% BSA in PBS solution for 1 h at room temperature. Subsequently, the cells were incubated with primary antibody diluted in 2% BSA/PBS solution overnight at 4 °C, followed by washing the cells three times for 10 min with PBS and incubated with Alexa Fluor-conjugated secondary antibody diluted in 2% BSA/PBS for 30 min at room temperature. Using a DAPI-containing mounting medium (Vector Laboratories), the coverslips were mounted on glass slides. Confocal images were taken by laser scanning confocal microscope 510 Meta (Zeiss) and analyzed by Zeiss LSM Image Browser (ver. 4.2.0.121). […] Quantification results are shown as mean ± S.D. or S.E.M. of three independent experiments

wild-type desmin = biological target: T1, wild-type desmin (Homo sapiens, UniProt P17661); test: WB degradation of wild-type desmin in HeLa cells; type: cell-based; conditions: exogenously expressed
T1 construct: expressed in transfected cells; host or cells: HeLa, transient
Description: Adherent cells were washed with phosphate-buffered saline (PBS) and cell pellets were lysed in SDS-based sample buffer (277.8 mM Tris-HCI, pH 6.8, 4.4% LDS, 44.4% (v/v) glycerol) containing beta-mercaptoethanol. Alternatively, cell pellets or protein supernatants were lysed in 5X Laemmli sample buffer. Whole-cell lysates were separated using SDS-PAGE, and transferred onto polyvinyllidene difluoride membranes at 100 V for 2 h at 4 °C. The membrane was incubated with a blocking solution consisting 4% skim milk in PBS solution for 30 min at room temperature and incubated with primary antibodies overnight, followed by incubation with host-specific HRP-conjugated secondary antibodies (1:10000 dilution). For signal detection, the membrane was developed with a mixture of ECL solution (Thermo Fisher Scientific) using X-ray films. Densitometry of developed bands was measured and analyzed with ImageJ (NIH, Bethesda).
Supplementary Fig. 5. AUTOTACs selectively target pathological aggregation-prone proteins for autophagic degradation. (a) WB in HEK293T cells treated with PBA-1105 (1 μM) and MG132 (1 μM, 24 h) at the indicated time points. (b) ICC of HeLa cells treated with the indicated compounds (1 μM, 24 h). Scale bar, 10 μm. (c) WB in HEK293T cells treated with PBA-1105 (500 nM, 24 h) and MG132 (1 μM, 24 h) under siRNA-mediated knockdown of p62 or ATG7 (20 nM, 48 h). (d) ICC in HeLa cells transiently expressing WIPI2-GFP and treated with Anle138b-F105 (1 μM, 24 h). Scale bar, 10 μm. (e) ICC in HeLa cells treated with […]
nM, 24 h). (g, h) WB in HeLa cells transiently expressing wild type or mutant (L385P) desmin-flag with LacZ-myc and treated with PBA-1105, PBA-1105b or Anle138b-F105 at the […]

ACHN cells = test: WST-based cell viability assay in ACHN cells; conditions: for WST assay raw reading / WST assay viability relative to con = 100: ACHN, duplicates
[1] = WST-based cell viability assay in ACHN cells; conditions: human, ACHN cells; for viability at 0.01 µM / viability at 0.1 µM / viability at 1 µM / viability at 10 µM / viability at 50 µM / viability at 100 µM: ACHN
p62^+ERβ^+ puncta = test: ICC of ERβ puncta co-localization in ACHN cells; type: cell-based; conditions: 24 h; for ERβ-LC3 colocalization, cells of 50 cells counted: single experiments
Description: as §1

[2] = duplicates, read-out: WST assay viability relative to con = 100
[3] = read-out: WST assay viability, AVG %

T1 sequence (P17661 whole entry): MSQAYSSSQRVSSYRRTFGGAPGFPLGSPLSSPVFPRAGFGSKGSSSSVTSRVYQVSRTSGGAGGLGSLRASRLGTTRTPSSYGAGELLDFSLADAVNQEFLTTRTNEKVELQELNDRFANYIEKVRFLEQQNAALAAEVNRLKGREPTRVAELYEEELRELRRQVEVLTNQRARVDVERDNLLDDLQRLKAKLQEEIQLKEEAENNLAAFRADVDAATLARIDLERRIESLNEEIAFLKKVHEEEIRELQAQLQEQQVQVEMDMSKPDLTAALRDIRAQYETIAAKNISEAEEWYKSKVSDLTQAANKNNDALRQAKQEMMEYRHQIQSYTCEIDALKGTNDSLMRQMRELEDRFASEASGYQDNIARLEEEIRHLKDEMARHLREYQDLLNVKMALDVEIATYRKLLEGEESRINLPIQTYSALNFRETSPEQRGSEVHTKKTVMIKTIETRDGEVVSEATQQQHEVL

O=C(O)CCCc1ccccc1 [4-PBA, 4-phenylbutyric acid]
FK2 (Ub) / p62 colocalization, AVG of cells per 50 cells (Ub^+ and p62^+ puncta; no co-treatment (con)): 6.333 | FK2 (Ub) / p62 colocalization, percentage AVG (Ub^+ and p62^+ puncta; no co-treatment (con)): 12.6667 percentage | FK2 (Ub) / p62 colocalization, cells counted per 50 cells (individual replicates) (Ub^+ and p62^+ puncta; no co-treatment (con), count out of 50 cells): 7 and 9 and 3 | FK2 (Ub) / p62 colocalization, AVG of cells per 50 cells (Ub^+ and p62^+ puncta; with HCQ): 19 | FK2 (Ub) / p62 colocalization, percentage AVG (Ub^+ and p62^+ puncta; with HCQ): 38 percentage | FK2 (Ub) / p62 colocalization, cells counted per 50 cells (individual replicates) (Ub^+ and p62^+ puncta; with HCQ, count out of 50 cells): 25 and 15 and 17 | FK2 (Ub) / p62 colocalization, AVG of cells per 50 cells (Ub^+ and p62^+ puncta; with MG132): 24 | FK2 (Ub) / p62 colocalization, percentage AVG (Ub^+ and p62^+ puncta; with MG132): 48 percentage | FK2 (Ub) / p62 colocalization, AVG of cells per 50 cells (Ub^+ and p62^+ puncta; with MG132+HCQ): 35.3333 | FK2 (Ub) / p62 colocalization, percentage AVG (Ub^+ and p62^+ puncta; with MG132+HCQ): 70.6667 percentage | FK2 (Ub) / p62 colocalization, cells counted per 50 cells (individual replicates) (Ub^+ and p62^+ puncta; with MG132+HCQ, count out of 50 cells): 32 and 39 and 35 | FK2 (Ub) / p62 colocalization, cells counted per 50 cells (individual replicates) (Ub^+ and p62^+ puncta; with MG132, count out of 50 cells): 13 and 33 and 26

O=C(CCCc1ccccc1)NCCOCCOCCOCCNCc1ccc(OCc2ccccc2)c(OCc2ccccc2)c1 [PBA-1105]
degradation of wild-type desmin (wild-type desmin): not wild-type desmin

O[C@H](CNCCOCCOCCOc1ccc(-c2c(-c3ccccc3)nn3c(C(F)(F)F)cc(C(F)(F)F)nc23)cc1)COc1ccc(OCc2ccccc2)c(OCCCc2ccccc2)c1 [PHTPP-1304]
higher cytotoxicity than p62-binding ligand or TBL (ACHN cells; ACHN cells): ~ 5 fold | WST assay raw reading (ACHN cells; 0.01uM): 1.001 and 0.98 | WST assay viability relative to con = 100 (ACHN cells; 0.01uM): 98.3465 | WST assay raw reading (ACHN cells; 0.1uM): 1.009 and 1.004 | WST assay viability relative to con = 100 (ACHN cells; 0.1uM): 101.115 | WST assay raw reading (ACHN cells; 1uM): 0.961 and 0.962 | WST assay viability relative to con = 100 (ACHN cells; 1uM): 96.2699 | WST assay raw reading (ACHN cells; 10uM): 0.146 and 0.145 | WST assay viability relative to con = 100 (ACHN cells; 10uM): 2.019 | WST assay raw reading (ACHN cells; 50uM): 0.234 and 0.222 | WST assay viability relative to con = 100 (ACHN cells; 50uM): 10.9017 | WST assay raw reading (ACHN cells; 100uM): 0.256 and 0.273 | WST assay viability relative to con = 100 (ACHN cells; 100uM): 16.7852 | viability at 0.01 µM [1, 2]: 101% | viability at 0.01 µM [1, 3]: 99.6% | viability at 0.1 µM [1, 2]: 102% | viability at 0.1 µM [1, 3]: 101% | viability at 1 µM [1, 2]: 96.2% | viability at 1 µM [1, 3]: 96.2% | viability at 10 µM [1, 2]: 2.13% | viability at 10 µM [1, 3]: 2.08% | viability at 50 µM [1, 2]: 12.3% | viability at 50 µM [1, 3]: 11.6% | viability at 100 µM [1, 2]: 14.8% | viability at 100 µM [1, 3]: 15.8% | IC50 ([1]; WST-based viability assay, read-out: cytotoxicity IC50): 3.3 µM | ERβ-LC3 colocalization, AVG of cells of 50 (p62^+ERβ^+ puncta; 0.5uM): 5.667 | ERβ-LC3 colocalization, percentage AVG (p62^+ERβ^+ puncta; 0.5uM): 11.3333% | ERβ-LC3 colocalization, AVG of cells of 50 (p62^+ERβ^+ puncta; 2.5uM): 12.6667 | ERβ-LC3 colocalization, percentage AVG (p62^+ERβ^+ puncta; 2.5uM): 25.3333% | ERβ-LC3 colocalization, AVG of cells of 50 (p62^+ERβ^+ puncta; 10uM + HCQ): 39 | ERβ-LC3 colocalization, percentage AVG (p62^+ERβ^+ puncta; 10uM + HCQ): 78% | ERβ-LC3 colocalization, cells of 50 cells counted (p62^+ERβ^+ puncta; 10uM + HCQ): 34 and 42 and 41 | ERβ-LC3 colocalization, AVG of cells of 50 (p62^+ERβ^+ puncta; 10uM): 29 | ERβ-LC3 colocalization, percentage AVG (p62^+ERβ^+ puncta; 10uM): 58% | ERβ-LC3 colocalization, cells of 50 cells counted (p62^+ERβ^+ puncta; 10uM): 24 and 34 and 29

From publication PMC8850458, “The AUTOTAC chemical biology platform for targeted protein degradation via the autophagy-lysosome system” (Nature Communications, 2022)
